Experimental findings from patent publication US7326534B2, “Detection of gleevec resistant mutations” (Oregon Health and Science University, priority 2001, dated 2008) are described below.

The assay has as its system Src family kinases. The experiment in a line: inhibition of tyrosine kinase. Type of assay: biochemical. The text has this: […]. […] […]. […] […]

For `Cc1ccc(NC(=O)c2ccc(CN3CCN(C)CC3)cc2)cc1Nc1nccc(-c2cccnc2)n1` [STI571, N-[4-methyl-3-(4-pyridin-3-yl-pyrimidin-2-ylamino)-phenyl]-4-(4-methyl-piperazin-1-ylmethyl)-benzamide], the “inhibition of kinase (in words)” value is given as “not”.
